In patent publication US5955357A, “In-vitro-derived human neutrophil precursor cells” (Nexell Therapeutics Inc., priority 1994, dated 1999):

B1: G-CSF: hematopoietic growth factor, granulocyte colony-stimulating factor (protein, UniProt P09919 31-207, looked up)
Granulocyte …: TPLGPASSLPQSFLLKCLEQVRKIQGDGAALQEKLVSECATYKLCHPEELVLLGHSLGIPWAPLSSCPSQALQLAGCLSQLHSGLFLYQGLLQALEGISPELGPTLDTLQLDVADFATTIWQQMEELGMAPALQPTQGAMPAFASAFQRRAGGVLVASHLQSFLEVSYRVLRHLAQP

Test system: CD15+CD11b- neutrophil precursors
Experiment: single cell proliferation assay of sorted neutrophil precursors in hematopoietic growth factors
Assay type: cell-based, human
Conditions: after 10 days in culture; for Percent of Total Cells Evaluated, 0 Cells/Wells / Percent of Total Cells Evaluated, 1-4 Cells/Well / Percent of Total Cells Evaluated, 5-8 Cells/Well / Percent of Total Cells Evaluated, 9-16 Cells/Well / Percent of Total Cells Evaluated, 17-32 Cells/Well / Percent of Total Cells Evaluated, >32 Cells/Well: Table V, individual growth factors, neutrophil precursors
Description: Apheresis samples were collected after peripheral blood counts reached 1000/ul from patients mobilized with G-CSF (10 ug/kg/day) following cyclophosphamide/VP16 chemotherapy. Apheresis was performed using the CS-3000® blood cell separator (Fenwal Division, Baxter Healthcare, Deerfield, Ill.). Bone marrow was collected from normal volunteers.
The assays were performed by sorting single cells based upon expression of CD15 and CD11b by flow cytometry into multiwell plates containing 10 ul of culture media with various growth factor combinations. […] The same studies were performed on fresh bone marrow for comparison. Plates containing the sorted cells were incubated at 37° C. and the number of cells in each well were counted on days 1, 3 and 10. For further characterization of antigenic expression, cells at varying timepoints of culture were stained with the following antigenic combinations: FITC-CD15/PE-CD11b, FITC-CD71/PE-CD45RA,and FITC-CD67/PE-CD34.
To assess the absolute requirement of growth factors on the proliferation of neutrophil precursors, single cells were plated in the presence or absence of all four growth factors described above. The single cell cultures were incubated for an additional 10 days and then each well was scored for the number of total cells. The wells were categorized according to the number of cells per well.
To determine which single growth factor or combination of growth factors would support proliferation of neutrophil precursors, various combinations of the above growth factors were tested in the single cell proliferation assay.

Molecule | Percent of Total Cells Evaluated, 0 Cells/Wells [%] | Percent of Total Cells Evaluated, 1-4 Cells/Well [%] | Percent of Total Cells Evaluated, 5-8 Cells/Well [%] | Percent of Total Cells Evaluated, 9-16 Cells/Well [%] | Percent of Total Cells Evaluated, 17-32 Cells/Well [%] | Percent of Total Cells Evaluated, >32 Cells/Well [%] | fraction of proliferating neutrophil precursors and extent of proliferation, compared with other growth factors (result in words)
GM-CSF: hematopoietic growth factor, granulocyte and macrophage colony-stimulating factor | 33 | 44 | 12 | 6 | 4 | 1 | 
SCF: hematopoietic growth factor, stem cell factor | 25 | 52 | 13 | 8 | 2 | 1 | 
B1 | 22 | 40 | 10 | 10 | 6 | 13 | enhances proliferation to a greater extent then either GM-CSF, IL-3 or SCF alone
